Values joined by “and” are separate entries in the source; they are usually repeats but may differ in a detail not shown here. Equal values may be shown once. Read-outs that look alike come from different tables or passages of the source.
What was measured:
VeroE6/TMPRSS2 cells = details: African green monkey
HCoV-OC43 = assay: microbe, parasite or virus in culture; type: cell-based
SARS-CoV = assay: microbe, parasite or virus in culture; type: cell-based; details: Severe acute respiratory syndrome coronavirus, VeroE6/TMPRSS2, read-out: EC50 against SARS-CoV
MERS-CoV = assay: microbe, parasite or virus in culture; type: cell-based; details: Middle East respiratory syndrome-related coronavirus, VeroE6/TMPRSS2, read-out: EC50 against MERS-CoV
SARS-CoV-2 [1] = assay: microbe, parasite or virus in culture; type: cell-based
HCoV-229E = assay: microbe, parasite or virus in culture; type: cell-based; details: Human coronavirus 229E
SARS-CoV-2 3CL protease = SARS-CoV-2 3CL protease (Severe acute respiratory syndrome coronavirus 2, UniProt P0DTD1); assay: biochemical; type: biochemical; details: for IC50: read-out: SARS-CoV-2 3CLpro IC50
[2] = male, Sprague-Dawley, rat, in vivo; for CL (total clearance): iv
chymotrypsin = assay: Human protease enzyme assay: chymotrypsin; type: biochemical
HIV-1 protease = HIV-1 protease (Human immunodeficiency virus type 1 group M subtype B, UniProt P04585); assay: Enzymatic inhibitory activity against HIV-1 protease; type: biochemical
cathepsin D [3] = biological target: T1, cathepsin D (Homo sapiens, UniProt P07339); assay: biochemical; details: read-out: Inhibitory activity
T1 sequence (P07339 65-412): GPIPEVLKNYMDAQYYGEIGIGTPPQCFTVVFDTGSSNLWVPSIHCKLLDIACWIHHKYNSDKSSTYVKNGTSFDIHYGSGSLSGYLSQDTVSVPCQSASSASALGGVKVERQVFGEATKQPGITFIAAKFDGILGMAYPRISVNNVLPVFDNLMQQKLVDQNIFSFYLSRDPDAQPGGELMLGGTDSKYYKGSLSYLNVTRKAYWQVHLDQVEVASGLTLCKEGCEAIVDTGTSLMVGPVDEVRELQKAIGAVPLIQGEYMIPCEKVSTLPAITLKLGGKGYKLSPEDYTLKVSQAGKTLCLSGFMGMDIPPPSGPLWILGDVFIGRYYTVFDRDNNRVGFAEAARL

cathepsin L = cathepsin L (Homo sapiens, UniProt P07711); assay: Human protease enzyme assay: cathepsin L; type: biochemical
Sequence of cathepsin L (P07711 114-333): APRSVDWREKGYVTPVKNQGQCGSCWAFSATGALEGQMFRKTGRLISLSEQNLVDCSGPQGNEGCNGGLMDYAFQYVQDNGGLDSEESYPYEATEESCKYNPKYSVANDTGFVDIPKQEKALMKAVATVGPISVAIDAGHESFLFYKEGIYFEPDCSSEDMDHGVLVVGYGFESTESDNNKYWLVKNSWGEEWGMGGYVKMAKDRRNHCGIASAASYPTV

[4] = biological target: T2, human ether-a-go-go-related gene channel (Homo sapiens, UniProt Q12809); assay: Human ether-a-go-go-related gene inhibition assay (patch clamp, CHO cells); type: cell-based; details: in vitro
T2 construct: expressed in transfected cells; host or cells: Chinese hamster ovary (CHO) cells
T2 sequence (Q12809 whole entry): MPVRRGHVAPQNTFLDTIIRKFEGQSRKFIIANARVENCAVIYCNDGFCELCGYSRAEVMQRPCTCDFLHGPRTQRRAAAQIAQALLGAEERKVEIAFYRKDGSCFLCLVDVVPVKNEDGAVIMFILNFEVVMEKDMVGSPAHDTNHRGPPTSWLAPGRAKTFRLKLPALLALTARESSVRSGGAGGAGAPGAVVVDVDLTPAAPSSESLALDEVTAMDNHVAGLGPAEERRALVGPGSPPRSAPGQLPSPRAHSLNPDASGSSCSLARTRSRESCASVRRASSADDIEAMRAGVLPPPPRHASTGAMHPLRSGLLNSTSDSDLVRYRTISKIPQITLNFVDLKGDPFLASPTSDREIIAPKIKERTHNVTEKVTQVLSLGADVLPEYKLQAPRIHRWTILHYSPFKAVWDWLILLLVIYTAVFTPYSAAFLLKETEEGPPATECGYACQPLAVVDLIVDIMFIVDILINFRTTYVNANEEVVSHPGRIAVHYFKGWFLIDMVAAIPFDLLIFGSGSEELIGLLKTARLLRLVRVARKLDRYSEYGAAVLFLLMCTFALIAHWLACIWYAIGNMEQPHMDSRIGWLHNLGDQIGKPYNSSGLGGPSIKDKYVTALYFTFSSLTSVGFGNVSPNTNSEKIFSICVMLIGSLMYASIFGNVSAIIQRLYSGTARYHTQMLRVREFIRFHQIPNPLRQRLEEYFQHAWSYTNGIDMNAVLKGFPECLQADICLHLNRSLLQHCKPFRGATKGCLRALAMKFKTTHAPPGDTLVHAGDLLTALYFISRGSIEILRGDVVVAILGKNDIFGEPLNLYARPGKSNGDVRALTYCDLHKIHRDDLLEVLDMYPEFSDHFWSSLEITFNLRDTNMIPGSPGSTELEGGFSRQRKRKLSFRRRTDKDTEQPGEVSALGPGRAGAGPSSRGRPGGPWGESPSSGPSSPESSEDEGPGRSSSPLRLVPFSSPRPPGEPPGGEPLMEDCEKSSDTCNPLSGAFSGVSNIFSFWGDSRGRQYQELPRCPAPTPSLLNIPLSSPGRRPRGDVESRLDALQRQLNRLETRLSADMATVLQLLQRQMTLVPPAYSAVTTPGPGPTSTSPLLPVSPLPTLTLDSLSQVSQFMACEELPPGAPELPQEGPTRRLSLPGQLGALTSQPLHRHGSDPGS

Dog PK study = details: intravenous 0.1 mg/0.2 mL/kg, n = 2, nonfasted
SARS-CoV-2 [5] = assay: Cellular antiviral activity in the presence of mouse serum; type: cell-based; details: Severe acute respiratory syndrome coronavirus 2; extrapolated to 100% mouse serum; read-out: protein-adjusted-EC50 (PA-EC50)
cathepsin G = biological target: T3, cathepsin G (Homo sapiens, UniProt P08311)
T3 sequence (P08311 21-255): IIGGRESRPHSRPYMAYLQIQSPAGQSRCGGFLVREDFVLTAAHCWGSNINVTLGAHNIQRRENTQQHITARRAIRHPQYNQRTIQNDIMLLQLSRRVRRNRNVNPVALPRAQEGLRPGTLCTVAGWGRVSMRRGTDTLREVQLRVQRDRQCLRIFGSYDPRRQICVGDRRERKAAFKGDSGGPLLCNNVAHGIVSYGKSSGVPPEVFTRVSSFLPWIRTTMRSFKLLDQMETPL

in vitro = details: African green monkey
Rat PK study = details: oral 1 μmol/5 mL/kg, n = 2, nonfasted, listed as S-217622
in vivo [6] = details: male, beagle, dog
caspase-2 = biological target: T4, caspase-2 (Homo sapiens, UniProt P42575)
T4 sequence (P42575 1-452): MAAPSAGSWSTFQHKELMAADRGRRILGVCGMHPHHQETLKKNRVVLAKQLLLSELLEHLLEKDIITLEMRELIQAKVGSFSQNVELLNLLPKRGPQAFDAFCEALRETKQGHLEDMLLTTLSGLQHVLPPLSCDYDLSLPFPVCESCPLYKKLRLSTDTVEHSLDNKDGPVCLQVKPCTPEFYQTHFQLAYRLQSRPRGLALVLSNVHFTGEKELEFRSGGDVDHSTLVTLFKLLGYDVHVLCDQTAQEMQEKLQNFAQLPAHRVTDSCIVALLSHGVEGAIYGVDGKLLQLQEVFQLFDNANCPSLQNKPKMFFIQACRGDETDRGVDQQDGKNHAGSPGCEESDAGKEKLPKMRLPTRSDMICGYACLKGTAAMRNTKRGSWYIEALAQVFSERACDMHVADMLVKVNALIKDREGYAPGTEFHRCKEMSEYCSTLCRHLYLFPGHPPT

in vivo [7] = details: female, cynomolgus monkey
thrombin = thrombin (Homo sapiens, UniProt P00734); details: at 100 μM
[8] = mouse, in vivo
[9] = tested on: SARS-CoV-2 Gamma strain (hCoV-19/Japan/TY7-501/2021); type: in vivo, BALB/cAJcl mice
Monkey PK study = details: intravenous 0.1 mg/0.2 mL/kg, n = 2, nonfasted
cathepsin D [10] = biological target: T1, cathepsin D; details: at 100 μM
[11] = male, rat, microsomes, 0.5 h, 0.5 μM, pH 7.4
[12] = both, human, microsomes, 0.5 h, 0.5 μM, pH 7.4
[13] = Severe acute respiratory syndrome coronavirus 2, VeroE6/TMPRSS2, strain hCoV-19/Japan/QHN001/2020 (Alpha, B.1.1.7), mean, read-out: EC50 on cytopathic effects
[14] = Severe acute respiratory syndrome coronavirus 2, VeroE6/TMPRSS2, strain hCoV-19/Japan/QHN002/2020 (Alpha, B.1.1.7), mean, read-out: EC50 on cytopathic effects
[15] = Severe acute respiratory syndrome coronavirus 2, VeroE6/TMPRSS2, strain hCoV-19/Japan/QK002/2020 (Alpha, B.1.1.7), mean, read-out: EC50 on cytopathic effects
[16] = Severe acute respiratory syndrome coronavirus 2, VeroE6/TMPRSS2, strain hCoV-19/Japan/TY7-501/2021 (Gamma, P.1), mean, read-out: EC50 on cytopathic effects
[17] = Severe acute respiratory syndrome coronavirus 2, VeroE6/TMPRSS2, strain hCoV-19/Japan/TY7-503/2021 (Gamma, P.1), mean, read-out: EC50 on cytopathic effects
[18] = Severe acute respiratory syndrome coronavirus 2, VeroE6/TMPRSS2, strain hCoV-19/Japan/TY8-612/2021 (Beta, B.1.351), mean, read-out: EC50 on cytopathic effects
[19] = Severe acute respiratory syndrome coronavirus 2, VeroE6/TMPRSS2, strain hCoV-19/Japan/TY11-927-P1/2021 (Delta, B.1.617.2), mean, read-out: EC50 on cytopathic effects
[20] = Severe acute respiratory syndrome coronavirus 2, VeroE6/TMPRSS2, strain hCoV-19/Japan/TY38-873/2021 (Omicron, B.1.1.529), mean, read-out: EC50 on cytopathic effects

Structure (SMILES): CCC(CC)COC(=O)[C@H](C)N[P@](=O)(OC[C@H]1O[C@@](C#N)(c2ccc3c(N)ncnn23)[C@H](O)[C@@H]1O)Oc1ccccc1 [Remdesivir, reference compound]
- CC50 (VeroE6/TMPRSS2 cells): > 100000 nM
- EC90 (HCoV-OC43; Betacoronavirus 1, OC43, MRC5, read-out: EC90 against HCoV-OC43): 24 nM
- EC50 (SARS-CoV): 1300 nM
- EC50 (MERS-CoV): 1500 nM
- EC50 (SARS-CoV-2 [1]; [13]): 970 nM
- EC50 (SARS-CoV-2 [1]; [14]): 990 nM
- EC50 (SARS-CoV-2 [1]; [15]): 870 nM
- EC50 (SARS-CoV-2 [1]; [16]): 2100 nM
- EC50 (SARS-CoV-2 [1]; [17]): 1000 nM
- EC50 (SARS-CoV-2 [1]; [18]): 1200 nM
- EC50 (SARS-CoV-2 [1]; [19]): 1600 nM
- EC50 (SARS-CoV-2 [1]; [20]): 1100 nM
- EC50 (SARS-CoV-2 [1]; Severe acute respiratory syndrome coronavirus 2, VeroE6/TMPRSS2, read-out: EC50 on cytopathic effects): 1900 nM
- EC50 (HCoV-229E; MRC5, read-out: EC50 against HCoV-229E): 41 nM

Structure (SMILES): CNC(=O)Cn1c(=O)[nH]/c(=N\c2ccc(OC(F)F)cc2C)n(Cc2cc(F)c(F)c(F)c2)c1=O [Compound 1, (4E)-2-(4-{[4-(Difluoromethoxy)-2-methylphenyl]imino}-2,6-dioxo-3-(3,4,5-trifluorobenzyl)-1,3,5-triazinan-1-yl)-N-methylacetamide]
- IC50 (SARS-CoV-2 3CL protease): 8600 nM
- CL (total clearance) [2]: 7.3 mL/min/kg
- Oral F (oral bioavailability) [2]: 111%

Structure (SMILES): CNC(=O)Cn1c(=O)[nH]/c(=N\c2ccc(OC)cc2)n(Cc2cc(F)c(F)c(F)c2)c1=O [Compound 14]
- IC50 (SARS-CoV-2 3CL protease): 2800 nM

Structure (SMILES): CNC(=O)Cn1c(=O)[nH]/c(=N\c2ccc(OC)cc2C)n(Cc2cc(F)c(F)c(F)c2)c1=O [Compound 13]
- IC50 (SARS-CoV-2 3CL protease): 1900 nM

Structure (SMILES): CNC(=O)Cn1c(=O)nc(Nc2cc3sc(C)nc3cc2C)n(Cc2cc(F)c(F)c(F)c2)c1=O [Compound 15]
- IC50 (SARS-CoV-2 3CL protease): 3500 nM

Structure (SMILES): CNC(=O)Cn1c(=O)[nH]/c(=N\c2cc3sc(C)nc3cc2C)n(Cc2ccccc2F)c1=O [Compound 17]
- IC50 (SARS-CoV-2 3CL protease): 35000 nM

Structure (SMILES): CNC(=O)Cn1c(=O)nc(Nc2cc3sc(C)nc3cc2C)n(Cc2cccc(F)c2)c1=O [Compound 18]
- IC50 (SARS-CoV-2 3CL protease): 29000 nM

Structure (SMILES): CNC(=O)Cn1c(=O)nc(Nc2cc3sc(C)nc3cc2C)n(Cc2ccc(F)cc2)c1=O [Compound 19]
- IC50 (SARS-CoV-2 3CL protease): 16000 nM

Structure (SMILES): Cn1cnc(Cn2c(=O)[nH]/c(=N\c3cc4cn(C)nc4cc3Cl)n(Cc3cc(F)c(F)cc3F)c2=O)n1 [Compound 3, (6E)-6-[(6-Chloro-2-methyl-2H-indazol-5-yl)imino]-3-[(1-methyl-1H-1,2,4-triazol-3-yl)methyl]-1-(2,4,5-trifluorobenzyl)-1,3,5-triazinane-2,4-dione]
- CC50 (VeroE6/TMPRSS2 cells): > 100000 nM
- IC50 (chymotrypsin): > 100000 nM
- IC50 (HIV-1 protease): > 100000 nM
- inhibition at 100 µM (HIV-1 protease; at 100 μM): < 50%
- phototoxicity (BALB/3T3 cells): no safety concerns
- inhibition at 100 µM (cathepsin D [3]): < 50%
- clastogenicity (TK6 cells): no safety concerns
- IC50 (cathepsin L): > 100000 nM
- Inhibitory activity (cathepsin L; at 100 μM): no inhibitory activity
- inhibition at 100 µM (cathepsin L; at 100 μM, read-out: Inhibitory activity): < 50%
- ether-a-go-go-related gene inhibition [4]: no safety concerns
- t1/2 (Dog PK study; listed as S-217622): ~30 h
- half-life (Dog PK study; male, beagle, in vivo, iv, 0.1 mg/kg, t1/2, dog): 29.5 h
- EC90 (HCoV-OC43; Betacoronavirus 1, OC43, MRC5, RT-qPCR, MRC-5 cells, mean, read-out: EC90 against HCoV-OC43): 74 nM
- EC50 (SARS-CoV-2 [5]): 3.93 µM and 2.09 µg/mL
- IC50 (cathepsin G): > 100000 nM
- EC50 (SARS-CoV): 210 nM
- EC50 (MERS-CoV): 1400 nM
- CC50 (in vitro): > 100000 nM
- Oral F (oral bioavailability) (Rat PK study): 97%
- clearance (in vivo [6]; iv, 0.1 mg/kg): 0.17 mL/min/kg
- bioavailability (in vivo [6]; po): 64.7%
- IC50 (caspase-2; caspase 2): > 100000 nM
- Inhibitory activity (caspase-2; caspase 2, at 100 μM): no inhibitory activity
- clearance (in vivo [7]; iv, 0.1 mg/kg): 0.29 mL/min/kg
- bioavailability (in vivo [7]; po): 106%
- Inhibitory activity (thrombin): no inhibitory activity
- EC50 (SARS-CoV-2 [1]; [13]): 310 nM
- EC50 (SARS-CoV-2 [1]; [14]): 460 nM
- EC50 (SARS-CoV-2 [1]; [15]): 330 nM
- EC50 (SARS-CoV-2 [1]; [16]): 500 nM
- EC50 (SARS-CoV-2 [1]; [17]): 430 nM
- EC50 (SARS-CoV-2 [1]; [18]): 400 nM
- EC50 (SARS-CoV-2 [1]; [19]): 410 nM
- EC50 (SARS-CoV-2 [1]; [20]): 290 nM
- EC50 (SARS-CoV-2 [1]; Severe acute respiratory syndrome coronavirus 2, CPE inhibition assay, VeroE6/TMPRSS2 cells, read-out: VeroE6/TMPRSS2 EC50 (antiviral activity)): 370 nM
- simulated plasma concentration over time ([8]; BALB/cAJcl, 16 mg/kg): above the protein-adjusted-EC50
- plasma concentration [8]: increased dose-dependently
- EC50 (HCoV-229E; MRC5, CPE, MRC-5 cells, mean, read-out: EC50 against HCoV-229E): 5500 nM
- CL (total clearance) [2]: 1.70 mL/min/kg
- lung viral titers ([9]; […], near lower limit of quantification): ~1.80
- effect on intrapulmonary (lung) viral titers ([9]; mouse, in vivo): reduced the intrapulmonary viral titers dose-dependently
- half-life (Monkey PK study; female, cynomolgus monkey, in vivo, iv, 0.1 mg/kg, t1/2, monkey): 10 h
- t1/2 (Monkey PK study; monkey, listed as S-217622): approximately 10 h
- Inhibitory activity (cathepsin D [10]): no inhibitory activity

Structure (SMILES): CNC(=O)Cn1c(=O)[nH]/c(=N\c2cc3cn(C)nc3cc2Cl)n(Cc2cc(F)c(F)c(F)c2)c1=O [Compound 2, (4E)-2-{4-[(6-Chloro-2-methyl-2H-indazol-5-yl)imino]-2,6-dioxo-3-(3,4,5-trifluorobenzyl)-1,3,5-triazinan-1-yl)-N-methylacetamide]
- RLM, percentage remaining after 30 min [11]: 94.3%
- HLM, percentage remaining after 30 min [12]: 94.8%
- IC50 (SARS-CoV-2 3CL protease): 96 nM
- improvement in enzymatic inhibitory activity (SARS-CoV-2 3CL protease; relative to hit compound 1): 90 fold
- EC50 (SARS-CoV-2 [1]; Severe acute respiratory syndrome coronavirus 2, VeroE6/TMPRSS2, molecular formula strings csv, read-out: VeroE6/TMPRSS2 EC50): 12500 nM
- CL (total clearance) [2]: 4.9 mL/min/kg
- Oral F (oral bioavailability) [2]: 29.6%

Structure (SMILES): CNC(=O)Cn1c(=O)[nH]/c(=N\c2cc3sc(C)nc3cc2C)n(Cc2ccccc2)c1=O [Compound 16]
- IC50 (SARS-CoV-2 3CL protease): 58000 nM

Source: publication PMC8982737, “Discovery of S-217622, a Noncovalent Oral SARS-CoV-2 3CL Protease Inhibitor Clinical Candidate for Treating COVID-19” (Journal of Medicinal Chemistry, 2022)
